From PMC4703549 (Cancer research, 2015)
Entries after “also recorded” stand apart in the source; their conditions may differ. Like-named read-outs stand apart in the source and are kept apart here.

Key:
TNK2 D163E cells = format: cell-based, murine; conditions: for IC50: Ba/F3 TNK2 D163E, no IL3, 72 hours, MTS
[1] = system: TNK2 D163E T205I and T205M Ba/F3 lines; format: cell-based, murine; conditions: T205I and T205M added to D163E, IL-3 independent Ba/F3 lines
TNK2 R806Q cells = format: cell-based, murine; conditions: for IC50: Ba/F3 TNK2 R806Q, no IL3, 72 hours, MTS
[2] = system: TNK2 S808* and TNK2 Q831fs; experiment: Phosphorylation of TNK2 truncation mutants in transfected 293T17 cells; format: cell-based, human; conditions: 1 μM dasatinib, 2.5 μM XMD8-87 or 2.5 μM XMD16-5, 3.5 hours
parental Ba/F3 cells = experiment: Inhibitor study, MTS viability of control Ba/F3 cells grown in IL3; format: cell-based, murine; conditions: IL3 containing medium; highest tested concentration 1,000 nM

SMILES	IC50 (TNK2 D163E cells) [nM]	sensitivity of D163E cell lines carrying gatekeeper mutations [1]	IC50 (TNK2 R806Q cells) [nM]	sensitivity of post-transformation line (TNK2 D163E cells; Ba/F3 TNK2 D163E post-interleukin-3-independent transformation)	IC50 (TNK2 D163E cells; listed as Dasatinib) [nM]	inhibition of phosphorylation of TNK2 truncation mutants [2]	sensitivity of control or pre-transformation cell lines grown in IL3 (parental Ba/F3 cells)	sensitivity of post-transformation line (TNK2 R806Q cells; Ba/F3 TNK2 R806Q post-interleukin-3-independent transformation)	IC50 (TNK2 R806Q cells; listed as Dasatinib) [nM]
c1ccc(-c2oc3ncnc(NC[C@@H]4CCCO4)c3c2-c2ccccc2)cc1 [AIM-100]	91	resistance	320	–	–	–	–	–	–
Cc1nc(Nc2ncc(C(=O)Nc3c(C)cccc3Cl)s2)cc(N2CCN(CCO)CC2)n1 [dasatinib, N-(2-chloro-6-methyl-phenyl)-2-(6-(4-(2-hydroxyethyl)-piperazin-1-yl)-2-methylpyrimidin-4-ylamino)thiazole-5-carboxamide]	< 10	resistance	< 10	sensitive to dasatinib at low nanomolar concentrations	~0.1	vast majority of phosphorylation was blocked; also recorded: inhibited	did not show sensitivity; also recorded: completely insensitive	sensitive to dasatinib at low nanomolar concentrations	1.3
COc1cc(N2CCN(C)CC2)ccc1Nc1ncc2c(n1)N(C)c1ccccc1C(=O)N2 [XMD8-87]	38	resistance	113	–	–	vast majority of phosphorylation was blocked; also recorded: inhibited; also recorded: potently inhibit	–	–	–
CN1c2ccccc2C(=O)Nc2cnc(Nc3ccc(N4CCC(O)CC4)cc3)nc21 [XMD16-5]	16	resistance	77	–	–	vast majority of phosphorylation was blocked; also recorded: inhibited; also recorded: potently inhibit	–	–	–
